# ChEMBL document CHEMBL5126529, “Drug discovery of histone lysine demethylases (KDMs) inhibitors (progress from 2018 to present)” (Eur J Med Chem, 2022)
# pIC50: −log10 of the molar value.
# Tests used:
# [1] = target: Lysine-specific demethylase 2B (Homo sapiens, UniProt Q8NHM5); test: Inhibition of KDM2B (unknown origin)
# [2] = target: Lysine-specific demethylase 2A (Homo sapiens, UniProt Q9Y2K7); test: Inhibition of KDM2A (unknown origin)
# [3] = target: Lysine-specific demethylase 5C (Homo sapiens, UniProt P41229); test: Inhibition of N-terminal FLAG/His-tagged full-length human KDM5C (2 to 1560 residues) expressed in baculovirus infected Sf9 insect cells using peptide substrate incubated for 2 hrs by Alpha Screen assay
# Lysine-specific demethylase 5C, sequence (P41229 whole entry, the tested form may be a part): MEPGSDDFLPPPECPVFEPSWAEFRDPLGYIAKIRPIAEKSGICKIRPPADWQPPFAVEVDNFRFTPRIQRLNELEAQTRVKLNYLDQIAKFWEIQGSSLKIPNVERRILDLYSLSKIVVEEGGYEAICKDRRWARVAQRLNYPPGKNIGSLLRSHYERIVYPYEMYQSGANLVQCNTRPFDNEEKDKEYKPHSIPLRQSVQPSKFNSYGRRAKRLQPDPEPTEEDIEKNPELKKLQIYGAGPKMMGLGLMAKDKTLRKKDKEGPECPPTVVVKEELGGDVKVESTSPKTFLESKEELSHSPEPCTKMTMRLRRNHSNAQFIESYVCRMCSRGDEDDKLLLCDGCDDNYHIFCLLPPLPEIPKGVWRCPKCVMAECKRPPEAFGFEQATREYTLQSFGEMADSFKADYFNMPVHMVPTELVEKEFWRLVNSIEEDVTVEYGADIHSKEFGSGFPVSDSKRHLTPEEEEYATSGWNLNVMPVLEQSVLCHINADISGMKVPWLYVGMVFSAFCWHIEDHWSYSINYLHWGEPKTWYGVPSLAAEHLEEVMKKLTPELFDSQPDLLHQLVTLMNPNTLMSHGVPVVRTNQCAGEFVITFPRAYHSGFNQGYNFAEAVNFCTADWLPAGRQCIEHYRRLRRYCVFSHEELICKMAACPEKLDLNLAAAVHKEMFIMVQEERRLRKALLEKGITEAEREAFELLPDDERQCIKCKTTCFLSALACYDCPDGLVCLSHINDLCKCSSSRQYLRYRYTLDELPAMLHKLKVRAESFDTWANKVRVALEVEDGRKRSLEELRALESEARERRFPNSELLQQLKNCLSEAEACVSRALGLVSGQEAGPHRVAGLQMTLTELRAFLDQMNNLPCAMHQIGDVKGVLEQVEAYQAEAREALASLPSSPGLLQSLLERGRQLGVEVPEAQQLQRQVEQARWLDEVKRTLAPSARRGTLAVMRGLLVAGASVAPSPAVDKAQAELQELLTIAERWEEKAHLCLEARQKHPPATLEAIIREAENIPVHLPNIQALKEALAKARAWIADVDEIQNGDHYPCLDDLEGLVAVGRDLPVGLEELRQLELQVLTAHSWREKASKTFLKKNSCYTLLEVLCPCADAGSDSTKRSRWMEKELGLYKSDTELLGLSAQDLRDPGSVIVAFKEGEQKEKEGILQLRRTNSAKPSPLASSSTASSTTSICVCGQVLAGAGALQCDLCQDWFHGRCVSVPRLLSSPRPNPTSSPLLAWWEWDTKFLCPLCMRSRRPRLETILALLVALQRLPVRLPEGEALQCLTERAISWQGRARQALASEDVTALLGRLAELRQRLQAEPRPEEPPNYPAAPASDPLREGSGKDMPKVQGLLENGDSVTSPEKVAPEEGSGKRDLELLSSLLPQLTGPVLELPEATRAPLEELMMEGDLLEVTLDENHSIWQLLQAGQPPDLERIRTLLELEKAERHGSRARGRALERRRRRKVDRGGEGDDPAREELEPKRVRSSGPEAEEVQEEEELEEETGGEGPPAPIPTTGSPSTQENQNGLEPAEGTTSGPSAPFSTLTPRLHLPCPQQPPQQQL
# [4] = target: Lysine-specific demethylase 6B (Homo sapiens, UniProt O15054); test: Inhibition of KDM6B (1043 to end residues) (unknown origin) using ATKAARK(me3)-SAPATGGVKKPHRYRPG-GK(biotin) as substrate preincubated for 10 mins followed by substrate addition measured after 45 mins by LANCE Ultra assay
# [5] = target: T1, Lysine-specific demethylase 4A (Homo sapiens, UniProt O75164); test: Inhibition of KDM4A (1 to 359 residues) (unknown origin) using ARTKQTARK(me3)-STGGKAPRKQLA-GGK(biotin) peptide as substrate preincubated for 10 mins followed by substrate addition measured after 45 mins by LANCE Ultra assay
# T1 sequence (O75164 whole entry): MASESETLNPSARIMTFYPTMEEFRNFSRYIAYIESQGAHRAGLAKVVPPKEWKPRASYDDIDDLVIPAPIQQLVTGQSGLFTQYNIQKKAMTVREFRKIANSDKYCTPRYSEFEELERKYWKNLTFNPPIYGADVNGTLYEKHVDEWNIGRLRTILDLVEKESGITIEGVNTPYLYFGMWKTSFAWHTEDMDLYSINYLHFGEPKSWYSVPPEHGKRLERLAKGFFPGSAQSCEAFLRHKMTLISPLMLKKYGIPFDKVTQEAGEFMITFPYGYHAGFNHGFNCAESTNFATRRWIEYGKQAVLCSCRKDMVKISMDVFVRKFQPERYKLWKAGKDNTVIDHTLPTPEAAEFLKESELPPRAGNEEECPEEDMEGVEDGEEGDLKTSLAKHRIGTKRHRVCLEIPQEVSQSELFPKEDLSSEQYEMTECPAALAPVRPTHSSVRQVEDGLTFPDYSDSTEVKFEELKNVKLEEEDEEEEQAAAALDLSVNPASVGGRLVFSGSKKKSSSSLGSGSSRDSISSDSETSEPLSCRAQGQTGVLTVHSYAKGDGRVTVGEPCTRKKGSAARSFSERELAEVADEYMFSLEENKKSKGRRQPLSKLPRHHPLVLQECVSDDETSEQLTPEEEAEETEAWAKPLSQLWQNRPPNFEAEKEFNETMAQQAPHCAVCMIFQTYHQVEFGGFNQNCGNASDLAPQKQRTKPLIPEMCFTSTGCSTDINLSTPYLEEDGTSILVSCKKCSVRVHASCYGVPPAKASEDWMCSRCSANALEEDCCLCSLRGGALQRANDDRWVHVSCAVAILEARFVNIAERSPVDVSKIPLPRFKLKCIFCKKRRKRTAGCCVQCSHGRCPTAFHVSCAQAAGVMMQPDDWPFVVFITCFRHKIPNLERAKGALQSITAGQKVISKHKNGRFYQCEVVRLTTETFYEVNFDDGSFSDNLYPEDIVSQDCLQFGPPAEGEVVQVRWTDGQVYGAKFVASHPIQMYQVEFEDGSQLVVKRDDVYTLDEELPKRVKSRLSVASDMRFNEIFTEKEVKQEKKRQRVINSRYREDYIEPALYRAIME
# [6] = target: T2, Lysine-specific demethylase 5A (Homo sapiens, UniProt P29375); test: Inhibition of full-length KDM5A ([…])(unknown origin) using ARTK(me3)-QTARKSTGGKAPRKQLA-GGK(biotin) as substrate preincubated for 10 mins followed by substrate addition measured after 45 mins by LANCE Ultra assay
# T2 sequence (P29375 whole entry): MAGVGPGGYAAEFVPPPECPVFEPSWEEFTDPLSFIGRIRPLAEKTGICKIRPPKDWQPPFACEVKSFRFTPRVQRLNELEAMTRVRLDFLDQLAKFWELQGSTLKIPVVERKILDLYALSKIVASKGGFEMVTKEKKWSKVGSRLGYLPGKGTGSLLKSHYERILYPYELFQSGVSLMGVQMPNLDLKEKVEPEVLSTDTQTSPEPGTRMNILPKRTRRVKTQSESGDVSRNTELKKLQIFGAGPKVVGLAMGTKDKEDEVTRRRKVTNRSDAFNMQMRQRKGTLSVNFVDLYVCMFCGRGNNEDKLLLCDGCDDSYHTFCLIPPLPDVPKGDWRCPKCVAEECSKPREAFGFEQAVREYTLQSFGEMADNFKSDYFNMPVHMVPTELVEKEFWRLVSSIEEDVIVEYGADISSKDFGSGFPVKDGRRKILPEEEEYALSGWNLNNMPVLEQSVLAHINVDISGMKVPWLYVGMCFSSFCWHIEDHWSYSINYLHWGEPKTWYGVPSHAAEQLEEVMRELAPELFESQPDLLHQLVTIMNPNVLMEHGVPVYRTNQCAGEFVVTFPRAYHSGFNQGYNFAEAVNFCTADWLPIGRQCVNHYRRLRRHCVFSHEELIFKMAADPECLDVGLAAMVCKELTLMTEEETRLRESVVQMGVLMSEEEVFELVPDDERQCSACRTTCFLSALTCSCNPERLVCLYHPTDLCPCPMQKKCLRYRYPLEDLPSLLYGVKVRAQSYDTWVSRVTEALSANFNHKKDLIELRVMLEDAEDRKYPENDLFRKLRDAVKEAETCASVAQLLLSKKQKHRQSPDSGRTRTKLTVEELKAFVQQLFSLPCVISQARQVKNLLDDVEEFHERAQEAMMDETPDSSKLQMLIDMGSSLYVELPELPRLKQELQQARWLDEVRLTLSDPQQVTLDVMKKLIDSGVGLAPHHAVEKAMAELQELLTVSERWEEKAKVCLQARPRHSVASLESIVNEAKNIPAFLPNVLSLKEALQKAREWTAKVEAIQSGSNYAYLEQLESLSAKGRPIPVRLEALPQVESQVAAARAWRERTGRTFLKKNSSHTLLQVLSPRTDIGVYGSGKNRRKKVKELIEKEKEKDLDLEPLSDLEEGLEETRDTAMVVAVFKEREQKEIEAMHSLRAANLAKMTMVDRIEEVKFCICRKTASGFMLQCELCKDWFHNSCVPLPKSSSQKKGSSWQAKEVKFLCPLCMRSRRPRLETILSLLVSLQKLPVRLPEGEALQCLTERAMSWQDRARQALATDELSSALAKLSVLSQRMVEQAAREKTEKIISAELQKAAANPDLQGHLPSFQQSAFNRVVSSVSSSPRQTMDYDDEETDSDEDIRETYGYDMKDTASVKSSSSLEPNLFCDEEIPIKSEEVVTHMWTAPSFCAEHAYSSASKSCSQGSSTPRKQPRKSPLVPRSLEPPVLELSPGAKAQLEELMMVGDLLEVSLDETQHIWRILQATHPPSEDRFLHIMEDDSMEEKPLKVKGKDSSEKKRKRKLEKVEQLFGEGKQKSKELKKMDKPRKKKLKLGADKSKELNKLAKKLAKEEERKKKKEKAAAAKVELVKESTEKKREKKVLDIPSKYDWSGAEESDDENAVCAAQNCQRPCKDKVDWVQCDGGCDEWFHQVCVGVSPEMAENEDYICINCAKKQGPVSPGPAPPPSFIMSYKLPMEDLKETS
# [7] = target: T1, Lysine-specific demethylase 4A; test: Inhibition of KDM4A (unknown origin) incubated for 30 mins by fluorescence based assay
# [8] = target: T2, Lysine-specific demethylase 5A; test: Inhibition of full-length human KDM5A expressed in recombinant baculovirus expression system using […] peptide as substrate incubated for 30 to 45 mins by TR-FRET assay; set-up: species or system Sf9
# Lysine-specific demethylase 2A, sequence (Q9Y2K7 whole entry, the tested form may be a part): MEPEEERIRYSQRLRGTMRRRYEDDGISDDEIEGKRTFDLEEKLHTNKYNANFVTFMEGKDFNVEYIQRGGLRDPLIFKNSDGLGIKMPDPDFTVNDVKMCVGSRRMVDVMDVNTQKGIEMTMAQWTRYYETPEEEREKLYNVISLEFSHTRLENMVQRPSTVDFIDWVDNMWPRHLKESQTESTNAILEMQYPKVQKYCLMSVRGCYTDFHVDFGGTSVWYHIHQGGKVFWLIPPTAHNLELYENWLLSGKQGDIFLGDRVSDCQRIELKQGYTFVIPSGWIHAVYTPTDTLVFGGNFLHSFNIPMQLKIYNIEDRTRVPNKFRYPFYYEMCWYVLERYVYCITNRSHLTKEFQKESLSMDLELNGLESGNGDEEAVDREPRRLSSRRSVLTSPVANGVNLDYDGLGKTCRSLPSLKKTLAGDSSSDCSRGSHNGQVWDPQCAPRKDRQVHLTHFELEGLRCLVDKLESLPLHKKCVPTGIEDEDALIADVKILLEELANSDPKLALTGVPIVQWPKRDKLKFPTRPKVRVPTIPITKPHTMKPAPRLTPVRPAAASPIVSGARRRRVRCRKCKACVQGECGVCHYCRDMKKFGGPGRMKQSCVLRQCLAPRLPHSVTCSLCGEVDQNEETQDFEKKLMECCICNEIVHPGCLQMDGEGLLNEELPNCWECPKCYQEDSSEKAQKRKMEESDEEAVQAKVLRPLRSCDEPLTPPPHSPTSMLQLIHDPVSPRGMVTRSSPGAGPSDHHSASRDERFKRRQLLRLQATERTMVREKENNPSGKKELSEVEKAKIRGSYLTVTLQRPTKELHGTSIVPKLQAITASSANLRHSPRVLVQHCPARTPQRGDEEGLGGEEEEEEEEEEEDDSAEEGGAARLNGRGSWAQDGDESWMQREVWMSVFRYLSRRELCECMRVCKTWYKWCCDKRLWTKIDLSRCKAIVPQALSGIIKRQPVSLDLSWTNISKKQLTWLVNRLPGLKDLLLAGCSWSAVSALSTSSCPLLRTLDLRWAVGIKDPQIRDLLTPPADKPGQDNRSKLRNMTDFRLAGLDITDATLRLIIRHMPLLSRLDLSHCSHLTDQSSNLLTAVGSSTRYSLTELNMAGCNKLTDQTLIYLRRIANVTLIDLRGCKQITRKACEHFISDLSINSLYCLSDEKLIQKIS
compound,measurement,setting,value
Cc1c(O)c(=O)ccn1C [DEFERIPRONE],pIC50,[1],5.09
same,pIC50,[2],5.17
CCCCCCN(C)CCn1cc(-c2cc(C(=O)O)ccn2)nn1,pIC50,[3],8.06
O=C(O)c1ccc(-n2nc(-c3ccccc3O)nc2-c2ccccc2O)cc1 [DEFERASIROX],pIC50,[4],5.40
same,pIC50,[5],5.32
same,pIC50,[6],5.30
Cc1cc(O[C@H](C)C(=O)NCC(=O)NCC(=O)O)c2c3c(c(=O)oc2c1)CCC3,pIC50,[7],< 4.00
same,pIC50,[8],7.62
